Measurements as given in patent US11730720B2, “ALK5 inhibitors” (THERAVANCE BIOPHARMA R&D IP, LLC, priority 2018, dated 2023).

Assays:
[1] = target: T1, recombinant human ALK5 (TGF-βR1) protein (Homo sapiens, UniProt P36897); test: Biochemical ALK5 (TGF-βR1) assay to measure pKi (LANCE Ultra ULight kinase assay); conditions: apparent pKi, converted from pIC50 using the Cheng-Prusoff equation
T1 construct: purchased Life Technologies PR9075A
T1 sequence (P36897 34-503): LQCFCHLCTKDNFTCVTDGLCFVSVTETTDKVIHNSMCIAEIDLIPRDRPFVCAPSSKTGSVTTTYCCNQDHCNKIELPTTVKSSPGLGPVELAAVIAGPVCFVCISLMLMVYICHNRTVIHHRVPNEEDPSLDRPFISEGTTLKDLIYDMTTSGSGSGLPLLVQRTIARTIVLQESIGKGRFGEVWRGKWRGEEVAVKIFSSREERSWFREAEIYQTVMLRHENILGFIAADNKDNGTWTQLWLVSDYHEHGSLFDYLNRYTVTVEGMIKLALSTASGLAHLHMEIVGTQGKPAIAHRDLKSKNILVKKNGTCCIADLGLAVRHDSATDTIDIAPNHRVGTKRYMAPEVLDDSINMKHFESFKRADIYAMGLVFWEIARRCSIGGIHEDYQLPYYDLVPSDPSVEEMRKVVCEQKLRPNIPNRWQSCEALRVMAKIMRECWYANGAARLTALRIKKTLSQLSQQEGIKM
Summary of the method: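 TR-FRET kinase format: compound dose range 10 μM–25 pM equilibrated 60 min with human ALK5 and ULight-labelled topoisomerase 2α peptide in HEPES/MgCl2 buffer pH 7.5 with DTT. Reaction started with ATP (125 μM stock, 5× final), 60 min at 37° C, stopped with EDTA/Eu-anti-phospho antibody; pKi derived from pIC50 via Cheng-Prusoff.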

[2] = tested on: TGF-β-stimulated SMAD3 phosphorylation in BEAS-2B cells; test: Cellular ALK5 potency assay, inhibition of TGF-β stimulated pSMAD3 formation in BEAS-2B cells; type: cell-based; conditions: Homo sapiens, inhibition of TGF-β (10 ng/mL) stimulated pSMAD3 formation, 1 hour compound incubation, read-out: BEAS2B pIC50 (converted)
Summary of the method: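 Phospho-SMAD3 was quantified by AlphaLISA in lysates of human lung epithelial BEAS-2B cells. Compound was added 1 h (37 °C, HEPES/BSA-supplemented HBSS) before a 30 min challenge with 10 ng/mL TGF-β. Values are pIC50 relative to stimulated cells without compound.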

| SMILES | Ki [1] [nM] | IC50 [2] [nM] |
| --- | --- | --- |
| Fc1ccc(Cl)cc1-c1n[nH]cc1-c1ccc2ncc(-c3cnn(CCNCc4ccccc4)c3)cc2n1 [Compound 1-95, N-benzyl-2-[4-[6-[3-(5-chloro-2-fluoro-phenyl)-1H-pyrazol-4-yl]-1,5-naphthyridin-3-yl]pyrazol-1-yl]ethanamine] | 0.0398 to 0.316 | 25.1 to 158 |
| NC(=O)c1coc(-c2cnc3ccc(-c4c[nH]nc4-c4cc(Cl)ccc4F)nc3c2)n1 [Compound 1-105, 2-[6-[3-(5-chloro-2-fluoro-phenyl)-1H-pyrazol-4-yl]-1,5-naphthyridin-3-yl]oxazole-4-carboxamide] | 0.0398 to 0.316 | 25.1 to 158 |
| Fc1ccc(Cl)cc1-c1n[nH]cc1-c1ccc2ncc(Nc3ccc(N4CCNCC4)cn3)cc2n1 [Compound 1-15, 6-(3-(5-chloro-2-fluorophenyl)-1H-pyrazol-4-yl)-N-(5-(piperazin-1-yl)pyridin-2-yl)-1,5-naphthyridin-3-amine] | 0.0398 to 0.316 | 25.1 to 158 |
| CNC(=O)[C@H]1CN(c2cnc3ccc(-c4c[nH]nc4-c4cc(Cl)c(F)cc4F)nc3c2)CCN1C(C)C [Compound 6-38, (2R)-4-[6-[3-(5-chloro-2,4-difluoro-phenyl)-1H-pyrazol-4-yl]-1,5-naphthyridin-3-yl]-1-isopropyl-N-methyl-piperazine-2-carboxamide] | 0.0398 to 0.316 | 25.1 to 158 |
| NCCn1cc(-c2cnc3ccc(-c4nc[nH]c4-c4cc(Cl)ccc4F)nc3c2)cn1 [Compound 2-20, 2-[4-[6-[5-(5-chloro-2-fluoro-phenyl)-1H-imidazol-4-yl]-1,5-naphthyridin-3-yl]pyrazol-1-yl]ethanamine] | 0.0398 to 0.316 | 25.1 to 158 |
| O=C(O)[C@@H]1CN(c2cnc3ccc(-c4nc[nH]c4-c4cc(Cl)ccc4F)nc3c2)CCN1 [Compound 2-13, (S)-4-(6-(5-(5-chloro-2-fluorophenyl)-1H-imidazol-4-yl)-1,5-naphthyridin-3-yl)piperazine-2-carboxylic acid] | 0.398 to 3.16 | 200 to 1260 |
| CN1CCC(N(C)c2cnc3ccc(-c4c[nH]nc4-c4cc(Cl)c(F)cc4F)nc3c2)CC1 [Compound 6-16, 6-[3-(5-chloro-2,4-difluoro-phenyl)-1H-pyrazol-4-yl]-N-methyl-N-(1-methyl-4-piperidyl)-1,5-naphthyridin-3-amine] | 0.398 to 3.16 | 25.1 to 158 |
| Fc1ccc(Cl)cc1-c1n[nH]cc1-c1ccc2ncc(-c3nnn4c3NCC4)cc2n1 [Compound 1-123, 2-[3-(5-chloro-2-fluoro-phenyl)-1H-pyrazol-4-yl]-7-(5,6-dihydro-4H-imidazo[1,2-c]triazol-3-yl)-1,5-naphthyridine] | 0.0398 to 0.316 | 25.1 to 158 |
| Fc1ccc(Cl)cc1-c1n[nH]cc1-c1ccc2ncc(-c3cnc4n3CCCN4)cc2n1 [Compound 1-124, 2-[3-(5-chloro-2-fluoro-phenyl)-1H-pyrazol-4-yl]-7-(5,6,7,8-tetrahydroimidazo[1,2-a]pyrimidin-3-yl)-1,5-naphthyridine] | 0.0398 to 0.316 | 25.1 to 158 |
| CC(C)N1CCN(c2ccc(Nc3cnc4ccc(-c5nc[nH]c5-c5cc(Cl)ccc5F)nc4c3)nc2)CC1 [Compound 2-5, 6-(5-(5-chloro-2-fluorophenyl)-1H-imidazol-4-yl)-N-(5-(4-isopropylpiperazin-1-yl)pyridin-2-yl)-1,5-naphthyridin-3-amine] | 0.0398 to 0.316 | 25.1 to 158 |
| CN1CC=C(c2cnc3ccc(-c4c[nH]nc4-c4ccc(F)c(F)c4)nc3c2)C1 [Compound 8-22, 2-(3-(3,4-difluorophenyl)-1H-pyrazol-4-yl)-7-(1-methyl-2,5-dihydro-1H-pyrrol-3-yl)-1,5-naphthyridine] | 0.398 to 3.16 | 25.1 to 158 |
| Fc1ccc(Cl)cc1-c1n[nH]cc1-c1ccc2ncc(NC3CCNCC3)cc2n1 [Compound 1-24, 6-[3-(5-chloro-2-fluoro-phenyl)-1H-pyrazol-4-yl]-N-(4-piperidyl)-1,5-naphthyridin-3-amine] | 0.0398 to 0.316 | 25.1 to 158 |
| CC(C)N1CCN(CCNc2cnc3ccc(-c4c[nH]nc4-c4cc(Cl)ccc4F)nc3c2)CC1 [Compound 1-2] | 0.0398 to 0.316 | ≤ 20 |
| Oc1cnc2ccc(-c3c[nH]nc3-c3cc(Cl)ccc3F)nc2c1 [Compound 1-102, 6-[3-(5-chloro-2-fluoro-phenyl)-1H-pyrazol-4-yl]-1,5-naphthyridin-3-ol] | 0.398 to 3.16 | ≤ 20 |
| COC(=O)N1CCc2nnc(-c3cnc4ccc(-c5c[nH]nc5-c5cc(Cl)ccc5F)nc4c3)cc2C1 [Compound 1-126, methyl 3-[6-[3-(5-chloro-2-fluoro-phenyl)-1H-pyrazol-4-yl]-1,5-naphthyridin-3-yl]-7,8-dihydro-5H-pyrido[4,3-c]pyridazine-6-carboxylate] | 0.0398 to 0.316 | 25.1 to 158 |

Second part, led by results:

| Ki [1] [nM] | SMILES | IC50 [2] [nM] |
| --- | --- | --- |
| 0.398 to 3.16 | O=C(O)CC1CN(c2cnc3ccc(-c4nc[nH]c4-c4cccc(Cl)c4)nc3c2)CCN1 (stereo not shown) [Compound 29-4, 2-(4-(6-(5-(3-chlorophenyl)-1H-imidazol-4-yl)-1,5-naphthyridin-3-yl)piperazin-2-yl)acetic acid] | 1580 to 10000 |
| 0.0398 to 0.316 | CNCCn1cc(-c2cnc3ccc(-c4c(-c5cc(Cl)ccc5F)nc5ccccn45)cc3c2)cn1 [Compound 19-1, 2-(4-(6-(2-(5-chloro-2-fluorophenyl)imidazo[1,2-a]pyridin-3-yl)quinolin-3-yl)-1H-pyrazol-1-yl)-N-methylethan-1-amine] | 25.1 to 158 |
| 0.0398 to 0.316 | Fc1ccc(Cl)cc1-c1nc2ccccn2c1-c1ccc2ncc(-c3cnn(C4CCCNC4)c3)cc2c1 (stereo not shown) [Compound 19-2, 6-[2-(5-chloro-2-fluoro-phenyl)imidazo[1,2-a]pyridin-3-yl]-3-[1-(3-piperidyl)pyrazol-4-yl]quinoline] | 200 to 1260 |
| 3.98 to 31.6 | O=C(O)[C@H]1CN(c2cnc3ccc(-c4nc[nH]c4-c4cc(Cl)c(F)cc4F)cc3c2)CCN1 [Compound 22-6, (2R)-4-[6-[5-(5-chloro-2,4-difluoro-phenyl)-1H-imidazol-4-yl]-3-quinolyl]piperazine-2-carboxylic acid] | 1580 to 10000 |
| 0.0398 to 0.316 | CN1CCN(C2CCN(c3cnc4ccc(-c5c(-c6cc(Cl)ccc6F)nc6ccccn56)cc4c3)CC2)CC1 [Compound 19-5, 6-[2-(5-chloro-2-fluoro-phenyl)imidazo[1,2-a]pyridin-3-yl]-3-[4-(4-methylpiperazin-1-yl)-1-piperidyl]quinoline] | 200 to 1260 |
| 0.398 to 3.16 | CNCCn1cc(-c2cnc3ccc(-c4c[nH]nc4-c4cc(O)ccc4C)nc3c2)cn1 [Compound 13-1, 4-methyl-3-(4-(7-(1-(2-(methylamino)ethyl)-1H-pyrazol-4-yl)-1,5-naphthyridin-2-yl)-1H-pyrazol-3-yl)phenol] | 200 to 1260 |
| 0.398 to 3.16 | CC(C)N1CCN(CCNc2cnc3ccc(-c4c[nH]nc4-c4cc(Cl)ccc4F)cc3c2)CC1 [Compound 16-5, 6-(3-(5-chloro-2-fluorophenyl)-1H-pyrazol-4-yl)-N-(2-(4-isopropylpiperazin-1-yl)ethyl)quinolin-3-amine] | 25.1 to 158 |
| 0.398 to 3.16 | COCc1cccc(-c2n[nH]cc2-c2ccc3ncc(-c4cn[nH]c4)cc3n2)c1 [Compound 14-9, 2-[3-[3-(methoxymethyl)phenyl]-1H-pyrazol-4-yl]-7-(1H-pyrazol-4-yl)-1,5-naphthyridine] | ≤ 20 |
